3 molecules from US20230265151A1, “GIP/GLP1 CO-AGONIST COMPOUNDS” (priority 2020, published 2023) can be followed below.

The structures appear in SMILES notation. Read-outs that look alike come from different tables or passages of the source.

The target in assay [1] is T1, human GLP-1 receptor (hGLP-1R) (Homo sapiens, UniProt P43220).
T1 construct: expressed in transfected cells; crude membranes
The assay can be described thus: [125I]-GLP-1 binding, SPA with membranes of HEK293 cells expressing hGLP-1R. The protocol: Two methods are used for the preparation of crude cell membranes.
Method 1: Frozen cell pellets are lysed on ice in hypotonic buffer containing 50 mM Tris HCl, pH 7.5, and Roche Complete™ Protease Inhibitors with EDTA. […] The homogenate is centrifuged at 4° C. at 1100 × g for 10 minutes. The supernatant is collected and stored on ice while the pellets are resuspended in homogenization buffer and rehomogenized as described above. The homogenate is centrifuged at 1100 × g for 10 minutes. The second supernatant is combined with the first supernatant and centrifuged at 35000 × g for 1 hour at 4° C. The resulting membrane pellet is resuspended in homogenization buffer containing protease inhibitors at approximately 1 to 3 mg/mL, quick frozen in liquid nitrogen and stored as aliquots in a -80° C. freezer until use.
The homogenate is centrifuged at 4° C. at 1800 × g for 15 minutes. The supernatant is collected and stored on ice while the pellets are resuspended in homogenization buffer (without DNAse I) and rehomogenized as described above. The homogenate is centrifuged at 1800 × g for 15 minutes. The second supernatant is combined with the first supernatant and centrifuged an additional time at 1800 × g for 15 minutes. The overall supernatant is then centrifuged at 25000 × g for 30 minutes at 4° C. The resulting membrane pellet is resuspended in homogenization buffer (without DNAse I) containing protease inhibitors at approximately 1 to 3 mg/mL and stored as aliquots in a -80° C. freezer until use.
The human GLP-1 receptor binding assay is performed using an SPA format with WGA beads. The binding buffer contains 25 mM HEPES, pH 7.4, 2.5 mM CaCl2, 1 mM MgCl2, 0.1% (w/v) bacitracin, 0.003% (w/v) TWEEN®-20, and Roche Complete™ Protease Inhibitors without EDTA.
Raw CPM data for concentration curves of peptides, Gcg, GLP-1, or GIP are converted to percent inhibition by subtracting nonspecific binding (binding in the presence of excess unlabeled Gcg, GLP-1, or GIP, respectively) from the individual CPM values and dividing by the total binding signal, also corrected by subtracting nonspecific binding. Data are analyzed using four-parameter (curve maximum, curve minimum, IC50, Hill slope) nonlinear regression routines (Genedata Screener, version 12.0.4, Genedata AG, Basal, Switzerland). […] Values for Ki are reported as the geometric mean, with error expressed as the standard error of the mean (SEM) and n is equal to the number of independent replicates (determined in assays performed on different days). Geometric Means are calculated as follows: […]
The Ki Ratio (Ki for native control peptide/Ki for test compound) at each receptor and each species is calculated. The Ki Ratio is a rapid indication of the apparent affinity of a peptide compared to the native control peptide.
n=⅟x means that only one value out of the total number of replicates (x) is used to express the mean. SEM is only calculated when n=2 or greater non-qualified results exist. Means are expressed as GeoMetric means with the standard error of the mean (SEM) and the number of replicates (n) indicated in parenthesis.

The target in another assay is T2, hGIPR (Homo sapiens, UniProt P48546).
T2 construct: expressed in transfected cells
T2 sequence (P48546 22-466): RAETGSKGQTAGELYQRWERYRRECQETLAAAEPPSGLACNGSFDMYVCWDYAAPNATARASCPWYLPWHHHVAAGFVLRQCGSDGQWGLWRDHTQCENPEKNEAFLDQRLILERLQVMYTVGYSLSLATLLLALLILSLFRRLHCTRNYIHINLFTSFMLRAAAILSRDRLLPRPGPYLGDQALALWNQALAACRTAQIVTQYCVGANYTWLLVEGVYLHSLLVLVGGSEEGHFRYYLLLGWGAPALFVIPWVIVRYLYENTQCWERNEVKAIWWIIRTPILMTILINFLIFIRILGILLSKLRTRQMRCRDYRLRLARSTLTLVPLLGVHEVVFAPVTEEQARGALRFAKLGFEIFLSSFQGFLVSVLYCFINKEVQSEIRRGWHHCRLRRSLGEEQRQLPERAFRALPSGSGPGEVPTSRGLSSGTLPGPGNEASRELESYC
The assay can be described thus: Functional cAMP formation (HTRF) in HEK-293 clonal cells expressing hGIPR, 0.1% bovine casein, without or with 1.0% human serum albumin. The format is cell-based. The essentials:
(§1)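 Cells were stimulated with peptide for 30 min at 37° C, then intracellular cAMP was measured by competitive HTRF (665/620 nm ratio) and converted to nM using a cAMP standard curve. Relative EC50 and Emax came from four-parameter logistic fits of percent maximal response against peptide concentration.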
A general note: Cyclic AMP is a second messenger, typically raised through Gs and lowered through Gi signalling.

The target in another assay is T3, hGCGR (Homo sapiens, UniProt P47871).
T3 construct: expressed in transfected cells
T3 sequence (P47871 26-477): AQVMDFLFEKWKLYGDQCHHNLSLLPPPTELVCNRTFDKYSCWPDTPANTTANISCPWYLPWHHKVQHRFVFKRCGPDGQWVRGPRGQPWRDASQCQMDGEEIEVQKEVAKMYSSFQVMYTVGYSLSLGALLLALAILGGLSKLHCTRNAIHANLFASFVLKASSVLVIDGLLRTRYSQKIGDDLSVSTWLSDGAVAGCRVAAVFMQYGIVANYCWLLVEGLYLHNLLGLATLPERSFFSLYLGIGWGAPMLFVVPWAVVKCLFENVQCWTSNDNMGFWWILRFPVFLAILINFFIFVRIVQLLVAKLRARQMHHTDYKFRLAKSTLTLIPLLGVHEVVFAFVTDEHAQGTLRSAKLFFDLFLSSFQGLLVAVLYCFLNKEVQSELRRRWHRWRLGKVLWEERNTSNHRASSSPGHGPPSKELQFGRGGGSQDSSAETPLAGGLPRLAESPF
Kind of assay: Functional cAMP formation (HTRF) in HEK-293 clonal cells expressing hGCGR, 0.1% bovine casein, without or with 1.0% human serum albumin. The format is cell-based. The essentials:
as §1

Another assay concerns the target hGLP-1R (Homo sapiens, UniProt P43220). Kind of assay: Functional cAMP formation (HTRF) in HEK-293 clonal cells expressing hGLP-1R, 0.1% bovine casein, without or with 1.0% human serum albumin. Also on record: expressed in transfected cells. To be noted: for EC50: 37° C., geometric mean. The format is cell-based. The method in brief:
as §1

Setting [2] is: human GLP-1R, geometric mean (SEM, n), read-out: Binding Affinity Ki, nM (SEM, n) hGLP-1R.
Setting [3] is: 0.1% bovine casein and 1.0% human serum albumin, 37° C., geometric mean, read-out: hGIPR EC50, nM (SEM, n).
[4] abbreviates: 0.1% bovine casein and 1.0% human serum albumin, 37° C., geometric mean, read-out: hGCGR EC50, nM (SEM, n).
Where [5] appears, read: cAMP, incubated at 37° C., 0.1% bovine casein (no human serum albumin), geometric mean, read-out: hGCGR EC50, nM (SEM, n).
The mark [6] stands for this setting: 0.1% bovine casein and 1.0% human serum albumin, read-out: hGLP-1R EC50, nM (SEM, n).

T1 sequence (P43220 24-463): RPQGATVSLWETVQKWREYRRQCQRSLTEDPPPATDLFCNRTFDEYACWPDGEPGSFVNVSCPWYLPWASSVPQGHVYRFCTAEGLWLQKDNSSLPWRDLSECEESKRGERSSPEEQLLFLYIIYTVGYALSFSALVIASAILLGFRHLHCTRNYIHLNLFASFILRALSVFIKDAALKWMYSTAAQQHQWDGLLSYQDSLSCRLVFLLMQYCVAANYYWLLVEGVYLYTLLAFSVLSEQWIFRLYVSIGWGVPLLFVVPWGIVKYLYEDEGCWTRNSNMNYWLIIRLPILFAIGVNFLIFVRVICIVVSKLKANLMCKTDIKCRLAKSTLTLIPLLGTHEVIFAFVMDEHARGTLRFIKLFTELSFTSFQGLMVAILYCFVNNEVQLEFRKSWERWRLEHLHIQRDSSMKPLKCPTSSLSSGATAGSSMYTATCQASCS
Chain of hGLP-1R (P43220 24-463): as above

One may read the Ki as a measure of affinity in units of concentration, obtained from inhibition or displacement. A word on the Emax: it is the maximal effect, on the per cent scale that the assay sets. The term EC50 denotes the concentration needed to bring the measured effect to its halfway point. For the molecule `CC[C@H](C)[C@H](NC(=O)[C@H](CC(C)C)NC(=O)[C@](C)(Cc1ccc(O)cc1)NC(=O)[C@H](CCCCNC(=O)COCCOCCNC(=O)COCCOCCNC(=O)CC[C@H](NC(=O)CCCCCCCCCOc1ccc(C(=O)O)cc1)C(=O)O)NC(=O)[C@@H](NC(=O)[C@H](Cc1ccccc1)NC(=O)[C@H](Cc1ccncc1)NC(=O)C(C)(C)NC(=O)[C@H](CCC(N)=O)NC(=O)[C@H](C)NC(=O)[C@H](CCC(N)=O)NC(=O)[C@H](CCCN)NC(=O)[C@H](CC(=O)O)NC(=O)[C@H](CC(C)C)NC(=O)[C@](C)(CC(C)C)NC(=O)[C@@H](NC(=O)C(C)(C)NC(=O)[C@H](Cc1ccncc1)NC(=O)[C@H](CC(=O)O)NC(=O)[C@H](CO)NC(=O)[C@@H](NC(=O)[C@](C)(Cc1ccccc1F)NC(=O)[C@@H](NC(=O)CNC(=O)[C@H](CCC(=O)O)NC(=O)C(C)(C)NC(=O)[C@@H](N)Cc1ccc(O)cc1)[C@@H](C)O)[C@@H](C)O)[C@@H](C)CC)[C@@H](C)CC)C(=O)N[C@@H](CCCCNC(=O)COCCOCCNC(=O)COCCOCCNC(=O)CC[C@H](NC(=O)CCCCCCCCCOc1ccc(C(=O)O)cc1)C(=O)O)C(=O)NCC(=O)NCC(=O)N1CCC[C@H]1C(=O)N[C@@H](CO)C(=O)N[C@@H](CO)C(=O)NCC(=O)N[C@@H](C)C(=O)N1CCC[C@H]1C(=O)N1CCC[C@H]1C(=O)N1CCC[C@H]1C(=O)N[C@@H](CO)C(N)=O` [Example 493], in assay [1], affinity was put at a Ki of 0.25 nM. Moreover, the Emax at hGIPR (HEK293, read-out: hGIPR Emax, % ± SEM, cAMP, 37° C., 0.1% bovine casein and 1.0% human serum albumin, percent of maximal response to GIP(1-42)NH2) was 94.6%; at hGIPR (HEK293, read-out: hGIPR Emax, % ± SEM, cAMP, 37° C., 0.1% bovine casein, percent of maximal response to GIP(1-42)NH2, arithmetic mean), 105%; on hGLP-1R (HEK293, read-out: hGLP-1R Emax, % ± SEM, cAMP, 37° C., 0.1% bovine casein, percent of maximal response to GLP-1(7-36)NH2, arithmetic mean) it was 126%. For the same molecule, the EC50 at hGIPR (hGIPR EC50, nM (SEM, n), cAMP, 37° C., 0.1% bovine casein (no human serum albumin), geometric mean) is 0.0155 nM; on hGIPR (hGIPR EC50, nM (SEM, n), cAMP, 37° C., 0.1% bovine casein and 1.0% human serum albumin, geometric mean (SEM, n)), 0.591 nM; at hGCGR (hGCGR EC50, nM (SEM, n), cAMP, 37° C., 0.1% bovine casein (no human serum albumin), geometric mean), more than 9950 nM; on hGCGR (hGCGR EC50, nM (SEM, n), cAMP, 37° C., 0.1% bovine casein and 1.0% human serum albumin, geometric mean (SEM, n)), more than 9950 nM; at hGLP-1R (hGLP-1R EC50, nM (SEM, n), cAMP, 0.1% bovine casein (no human serum albumin)), 0.184 nM.
Regarding `CCCCCCCCCCCCCCCC(=O)N[C@@H](CCC(=O)NCCOCCOCC(=O)NCCOCCOCC(=O)NCCCC[C@H](NC(=O)[C@H](CCCN)NC(=O)[C@H](CC(=O)O)NC(=O)[C@H](CC(C)C)NC(=O)[C@](C)(CC(C)C)NC(=O)[C@@H](NC(=O)[C@H](CO)NC(=O)[C@H](Cc1ccncc1)NC(=O)[C@H](CC(=O)O)NC(=O)[C@H](CO)NC(=O)[C@@H](NC(=O)[C@](C)(Cc1ccccc1F)NC(=O)[C@@H](NC(=O)CNC(=O)[C@H](CCC(=O)O)NC(=O)C(C)(C)NC(=O)[C@@H](N)Cc1ccc(O)cc1)[C@@H](C)O)[C@@H](C)O)[C@@H](C)CC)C(=O)N[C@@H](C)C(=O)N[C@@H](CCC(N)=O)C(=O)NC(C)(C)C(=O)N[C@@H](CCCCNC(=O)COCCOCCNC(=O)COCCOCCNC(=O)CC[C@H](NC(=O)CCCCCCCCCCCCCCC)C(=O)O)C(=O)N[C@@H](Cc1ccccc1)C(=O)N[C@H](C(=O)N[C@H](CCC(=O)O)C(=O)N[C@@](C)(Cc1ccc(O)cc1)C(=O)N[C@@H](CC(C)C)C(=O)N[C@H](C(=O)N[C@@H](CCC(=O)O)C(=O)NCC(=O)NCC(=O)N1CCC[C@H]1C(=O)N[C@@H](CO)C(=O)N[C@@H](CO)C(=O)NCC(=O)N[C@@H](C)C(=O)N1CCC[C@H]1C(=O)N1CCC[C@H]1C(=O)N1CCC[C@H]1C(=O)N[C@@H](CO)C(N)=O)[C@@H](C)CC)[C@@H](C)CC)C(=O)O` [Example 21], the Ki in assay [1] (setting [2]) worked out at 0.246 nM. Moreover, the EC50 is 0.302 nM at hGIPR (setting [3]), more than 9950 nM on hGCGR (setting [4]), more than 9950 nM on hGCGR (setting [5]) and 0.806 nM on hGLP-1R (setting [6]).
Take `CC[C@H](C)[C@H](NC(=O)[C@H](CC(C)C)NC(=O)[C@](C)(Cc1ccc(O)cc1)NC(=O)[C@@H](CCC(=O)O)NC(=O)[C@@H](NC(=O)[C@H](Cc1ccccc1)NC(=O)[C@H](CCC(=O)O)NC(=O)C(C)(C)NC(=O)[C@H](CCC(N)=O)NC(=O)[C@H](C)NC(=O)[C@H](CCCCNC(=O)COCCOCCNC(=O)COCCOCCNC(=O)[C@@H](N)CCCCNC(=O)CCCCCCCCCCCCC(=O)O)NC(=O)[C@H](CCCN)NC(=O)[C@H](CC(=O)O)NC(=O)[C@H](CC(C)C)NC(=O)[C@](C)(CC(C)C)NC(=O)[C@@H](NC(=O)[C@H](CO)NC(=O)[C@H](Cc1ccncc1)NC(=O)[C@H](CC(=O)O)NC(=O)[C@H](CO)NC(=O)[C@@H](NC(=O)[C@](C)(Cc1ccccc1F)NC(=O)[C@@H](NC(=O)CNC(=O)[C@H](CCC(=O)O)NC(=O)C(C)(C)NC(=O)[C@@H](N)Cc1ccc(O)cc1)[C@@H](C)O)[C@@H](C)O)[C@@H](C)CC)[C@@H](C)CC)C(=O)N[C@@H](CCC(=O)O)C(=O)NCC(=O)NCC(=O)N[C@@H](CCCCNC(=O)COCCOCCNC(=O)COCCOCCNC(=O)[C@@H](N)CCCCNC(=O)CCCCCCCCCCCCC(=O)O)C(=O)N[C@@H](CO)C(=O)N[C@@H](CO)C(=O)NCC(=O)N[C@@H](C)C(=O)N1CCC[C@H]1C(=O)N1CCC[C@H]1C(=O)N1CCC[C@H]1C(=O)N[C@@H](CO)C(N)=O` [Example 33]: the Ki in assay [1] (setting [2]) came to 1.34 nM. The EC50 on hGIPR (setting [3]) is 0.0941 nM; at hGCGR (setting [4]), more than 9950 nM; on hGCGR (setting [5]), more than 9950 nM; on hGLP-1R (setting [6]) it was 4.35 nM. Also, the Emax is 92 ± 1.02% on hGIPR (HEK293, 0.1% bovine casein and 1.0% human serum albumin, 37° C., percent of maximal response to GIP(1-42)NH2, read-out: hGIPR Emax, % ± SEM); 97.6 ± 2.45% at hGIPR (HEK293, percent of maximal response to GIP(1-42)NH2, 37° C., 0.1% bovine casein, arithmetic mean, read-out: hGIPR Emax, % ± SEM).
